Among the data in patent US11987588B2, “Modulators of the beta-3 adrenergic receptor useful for the treatment or prevention of heart failure and disorders related thereto” (Arena Pharmaceuticals, Inc., priority 2017, dated 2024) are IC50 values, retold here.

The assay has as its target Beta-3 Adrenergic Receptor (Homo sapiens (Human), UniProt P13945). As to the kind of experiment: Homogeneous Time-Resolved Fluorescence (HTRF) cAMP antagonist assay, IC50 determination. It counts as cell-based. Particulars: CHO-K1 cells stably expressing recombinant receptor, isoproterenol at EC90. A digest of the protocol: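 CHO-K1 cells stably expressing receptor, 1500 cells/well, preincubated briefly with 10-point 5-fold compound series (top final typically 10 or 100 μM) in PBS with 1 mM IBMX, then challenged with isoproterenol at EC90 for 1 h at room temperature. cAMP read by HTRF against on-plate standard curve; IC50 from dose-response.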
For orientation: Time-resolved FRET reads energy transfer from a long-lived donor to a nearby acceptor.

Beta-3 Adrenergic Receptor, sequence (P13945 whole entry, species assumed): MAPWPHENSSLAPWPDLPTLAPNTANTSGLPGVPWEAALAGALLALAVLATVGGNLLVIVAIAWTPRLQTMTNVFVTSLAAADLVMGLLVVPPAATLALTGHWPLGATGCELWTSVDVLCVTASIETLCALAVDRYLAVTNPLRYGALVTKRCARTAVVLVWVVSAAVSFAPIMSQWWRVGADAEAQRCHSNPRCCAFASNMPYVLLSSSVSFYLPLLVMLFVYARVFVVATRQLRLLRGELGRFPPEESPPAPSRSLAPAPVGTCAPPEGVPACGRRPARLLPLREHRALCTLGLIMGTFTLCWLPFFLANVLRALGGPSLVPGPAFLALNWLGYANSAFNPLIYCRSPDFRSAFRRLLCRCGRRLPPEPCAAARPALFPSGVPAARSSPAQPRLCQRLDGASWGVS

As for `CNS(=O)(=O)c1cccc(OC[C@@H](O)CNC2COC3(CCN(S(=O)(=O)c4ccc(C)c(Br)c4)CC3)C2)c1` (stereo partly drawn) [Compound 218, 3-((2S)-3-(8-(3-bromo-4-methylphenylsulfonyl)-1-oxa-8-azaspiro[4.5]decan-3-ylamino)-2-hydroxypropoxy)-N-methylbenzenesulfonamide], the half-inhibitory concentration (IC50) (usually the point on the concentration scale where inhibition reaches its midpoint) worked out at 0.0393 µM.

In the case of `CNS(=O)(=O)c1cccc(OC[C@@H](O)CNC2COC3(CCN(S(=O)(=O)c4ccc5c(c4)N(C)CCO5)CC3)C2)c1` (stereo partly drawn) [Compound 189, 3-((2S)-2-hydroxy-3-(8-(4-methyl-3,4-dihydro-2H-benzo[b][1,4]oxazin-6-ylsulfonyl)-1-oxa-8-azaspiro[4.5]decan-3-ylamino)propoxy)-N-methylbenzenesulfonamide], the half-maximal inhibitory concentration (IC50) is 0.00851 µM.

Regarding `CNS(=O)(=O)c1cccc(OC[C@@H](O)CNC2COC3(CCN(S(=O)(=O)c4cncc(OC)c4)CC3)C2)c1` (stereo partly drawn) [Compound 386, 3-((2S)-2-hydroxy-3-(8-(5-methoxypyridin-3-ylsulfonyl)-1-oxa-8-azaspiro[4.5]decan-3-ylamino)propoxy)-N-methylbenzenesulfonamide], the IC50 was 0.0579 µM.

On to `CCNS(=O)(=O)c1cccc(OC[C@@H](O)CNC2COC3(CCN(S(=O)(=O)c4cccc(-c5ccc(S(N)(=O)=O)cc5)c4)CC3)C2)c1` (stereo partly drawn) [Compound 211, 3′-(3-((S)-3-(3-(N-ethylsulfamoyl)phenoxy)-2-hydroxypropylamino)-1-oxa-8-azaspiro[4.5]decan-8-ylsulfonyl)biphenyl-4-sulfonamide], for which the half-maximal inhibitory concentration (IC50) is 0.0165 µM.

Regarding `CNS(=O)(=O)c1cccc(OC[C@@H](O)CNC2COC3(CCN(S(=O)(=O)c4cc(-c5ccc(CN)cc5)ccc4C)CC3)C2)c1` (stereo partly drawn) [Compound 365, 3-((2S)-3-(8-(4′-(aminomethyl)-4-methylbiphenyl-3-ylsulfonyl)-1-oxa-8-azaspiro[4.5]decan-3-ylamino)-2-hydroxypropoxy)-N-methylbenzenesulfonamide], the concentration for half-maximal inhibition (IC50) was 0.0207 µM.

Turning to `CNS(=O)(=O)c1cccc(OC[C@@H](O)CNC2COC3(CCN(S(=O)(=O)c4cccc(Oc5ccccc5C(F)(F)F)c4)CC3)C2)c1` (stereo partly drawn) [Compound 170, 3-((2S)-2-hydroxy-3-(8-(3-(2-(trifluoromethyl)phenoxy)phenylsulfonyl)-1-oxa-8-azaspiro[4.5]decan-3-ylamino)propoxy)-N-methylbenzenesulfonamide], the IC50 came to 0.0506 µM.

For the molecule `CNS(=O)(=O)c1cccc(OC[C@@H](O)CNC2COC3(CCN(S(=O)(=O)c4cccc(-c5ccc(CNCCC(C)C)cc5)c4)CC3)C2)c1` (stereo partly drawn) [Compound 320, 3-((2S)-2-hydroxy-3-(8-(4′-((isopentylamino)methyl)biphenyl-3-ylsulfonyl)-1-oxa-8-azaspiro[4.5]decan-3-ylamino)propoxy)-N-methylbenzenesulfonamide], the IC50 was determined as 0.0263 µM.

In the case of `CNS(=O)(=O)c1cccc(OC[C@@H](O)CNC2COC3(CCN(S(=O)(=O)c4cccc(-c5ccccn5)c4)CC3)C2)c1` (stereo partly drawn) [Compound 102, 3-((2S)-2-hydroxy-3-(8-(3-(pyridin-2-yl)phenylsulfonyl)-1-oxa-8-azaspiro[4.5]decan-3-ylamino)propoxy)-N-methylbenzenesulfonamide], the IC50 amounted to 0.026 µM.

Turning to `CNS(=O)(=O)c1cccc(OC[C@@H](O)CN[C@H]2COC3(CCN(S(=O)(=O)c4cnc5c(c4)CC(=O)N5)CC3)C2)c1` [Compound 514, 3-((S)-2-hydroxy-3-((R)-8-(2-oxo-2,3-dihydro-1H-pyrrolo[2,3-b]pyridin-5-ylsulfonyl)-1-oxa-8-azaspiro[4.5]decan-3-ylamino)propoxy)-N-methylbenzenesulfonamide], the IC50 was 0.176 µM.

In the case of `CNS(=O)(=O)c1cccc(OC[C@@H](O)CNC2COC3(CCN(S(=O)(=O)c4cncc(-c5ccc(CN)nc5)c4)CC3)C2)c1` (stereo partly drawn) [Compound 388, 3-((2S)-3-(8-(6′-(aminomethyl)-3,3′-bipyridin-5-ylsulfonyl)-1-oxa-8-azaspiro[4.5]decan-3-ylamino)-2-hydroxypropoxy)-N-methylbenzenesulfonamide], the IC50 is 0.0794 µM.

Turning to `CNS(=O)(=O)c1cccc(OC[C@@H](O)CNC2COC3(CCN(S(=O)(=O)c4cncc(Br)c4)CC3)C2)c1` (stereo partly drawn) [Compound 337, 3-((2S)-3-(8-(5-bromopyridin-3-ylsulfonyl)-1-oxa-8-azaspiro[4.5]decan-3-ylamino)-2-hydroxypropoxy)-N-methylbenzenesulfonamide], the half-inhibitory concentration (IC50) was 0.0186 µM.

As for `CNS(=O)(=O)c1cccc(OC[C@@H](O)CNC2COC3(CCN(S(=O)(=O)c4ccc(-c5ccc(C(F)(F)F)cc5)cc4)CC3)C2)c1` (stereo partly drawn) [Compound 121, 3-((2S)-2-hydroxy-3-(8-(4′-(trifluoromethyl)biphenyl-4-ylsulfonyl)-1-oxa-8-azaspiro[4.5]decan-3-ylamino)propoxy)-N-methylbenzenesulfonamide], the half-inhibitory concentration (IC50) turned out to be 0.067 µM.

As for `CCn1ncc(S(=O)(=O)N2CCC3(CC2)CC(NC[C@H](O)COc2cccc(S(=O)(=O)NC)c2)CO3)c1C` (stereo partly drawn) [Compound 329, 3-((2S)-3-(8-(1-ethyl-5-methyl-1H-pyrazol-4-ylsulfonyl)-1-oxa-8-azaspiro[4.5]decan-3-ylamino)-2-hydroxypropoxy)-N-methylbenzenesulfonamide], the concentration for half-maximal inhibition (IC50) was 0.156 µM.

Turning to `CNS(=O)(=O)c1cccc(OC[C@@H](O)CN[C@@H]2COC3(CCN(S(=O)(=O)c4cccc(-c5ccc(CN)cc5)c4C)CC3)C2)c1` [Compound 447, 3-((S)-3-((S)-8-(4′-(aminomethyl)-2-methylbiphenyl-3-ylsulfonyl)-1-oxa-8-azaspiro[4.5]decan-3-ylamino)-2-hydroxypropoxy)-N-methylbenzenesulfonamide], the IC50 is 0.0199 µM.

For the molecule `CNS(=O)(=O)c1cccc(OC[C@@H](O)CNC2COC3(CCN(S(=O)(=O)c4cc(C)cc(F)c4)CC3)C2)c1` (stereo partly drawn) [Compound 179, 3-((2S)-3-(8-(3-fluoro-5-methylphenylsulfonyl)-1-oxa-8-azaspiro[4.5]decan-3-ylamino)-2-hydroxypropoxy)-N-methylbenzenesulfonamide], the IC50 is 0.00815 µM.

Regarding `CNS(=O)(=O)c1cccc(OC[C@@H](O)CNC2COC3(CCN(S(=O)(=O)c4cc(OC)cnc4C)CC3)C2)c1` (stereo partly drawn) [Compound 397, 3-((2S)-2-hydroxy-3-(8-(5-methoxy-2-methylpyridin-3-ylsulfonyl)-1-oxa-8-azaspiro[4.5]decan-3-ylamino)propoxy)-N-methylbenzenesulfonamide], the IC50 turned out to be 0.115 µM.

With `CN(C)S(=O)(=O)c1cccc(OC[C@@H](O)CNC2COC3(CCN(S(=O)(=O)c4ccc(CN)cc4)CC3)C2)c1` (stereo partly drawn) [Compound 290, 3-((2S)-3-(8-(4-(aminomethyl)phenylsulfonyl)-1-oxa-8-azaspiro[4.5]decan-3-ylamino)-2-hydroxypropoxy)-N,N-dimethylbenzenesulfonamide], the IC50 was 0.175 µM.

As for `CNS(=O)(=O)c1cccc(OC[C@@H](O)CNC2COC3(CCN(S(=O)(=O)c4ccc(OC(F)(F)F)cc4)CC3)C2)c1` (stereo partly drawn) [Compound 57, 3-((2S)-2-hydroxy-3-(8-(4-(trifluoromethoxy)phenylsulfonyl)-1-oxa-8-azaspiro[4.5]decan-3-ylamino)propoxy)-N-methylbenzenesulfonamide], the half-inhibitory concentration (IC50) amounted to 0.0317 µM.

As for `CNS(=O)(=O)c1cccc(OC[C@@H](O)CNC2COC3(CCN(S(=O)(=O)c4cccc(C)c4)CC3)C2)c1` (stereo partly drawn) [Compound 21, 3-((2S)-2-hydroxy-3-(8-(m-tolylsulfonyl)-1-oxa-8-azaspiro[4.5]decan-3-ylamino)propoxy)-N-methylbenzenesulfonamide], the IC50 stood at 0.0134 µM.

As for `CNS(=O)(=O)c1cccc(OC[C@@H](O)CNC2COC3(CCN(S(=O)(=O)c4ccccc4C#N)CC3)C2)c1` (stereo partly drawn) [Compound 39, 3-((2S)-3-(8-(2-cyanophenylsulfonyl)-1-oxa-8-azaspiro[4.5]decan-3-ylamino)-2-hydroxypropoxy)-N-methylbenzenesulfonamide], the IC50 came out at 0.0307 µM.

For `CNS(=O)(=O)c1cccc(OC[C@@H](O)CNC2COC3(CCN(S(=O)(=O)c4ccccn4)CC3)C2)c1` (stereo partly drawn) [Compound 322, 3-((2S)-2-hydroxy-3-(8-(pyridin-2-ylsulfonyl)-1-oxa-8-azaspiro[4.5]decan-3-ylamino)propoxy)-N-methylbenzenesulfonamide], the half-inhibitory concentration (IC50) came to 0.0735 µM.

Take `CNS(=O)(=O)c1cccc(OC[C@@H](O)CNC2COC3(CCN(S(=O)(=O)c4cccc(-c5ccco5)c4)CC3)C2)c1` (stereo partly drawn) [Compound 78, 3-((2S)-3-(8-(3-(furan-2-yl)phenylsulfonyl)-1-oxa-8-azaspiro[4.5]decan-3-ylamino)-2-hydroxypropoxy)-N-methylbenzenesulfonamide]: the 50% inhibitory concentration (IC50) worked out at 0.0207 µM.

For the molecule `CNS(=O)(=O)c1cccc(OC[C@@H](O)CNC2COC3(CCN(S(=O)(=O)c4ccc5c(c4)CCCC5)CC3)C2)c1` (stereo partly drawn) [Compound 16, 3-((2S)-2-hydroxy-3-(8-(5,6,7,8-tetrahydronaphthalen-2-ylsulfonyl)-1-oxa-8-azaspiro[4.5]decan-3-ylamino)propoxy)-N-methylbenzenesulfonamide], the IC50 worked out at 0.00747 µM.

Take `CN(C)S(=O)(=O)c1cccc(OC[C@@H](O)CNC2COC3(CCN(S(=O)(=O)c4cccc(-c5ccc(N)nc5)c4)CC3)C2)c1` (stereo partly drawn) [Compound 275, 3-((2S)-3-(8-(3-(6-aminopyridin-3-yl)phenylsulfonyl)-1-oxa-8-azaspiro[4.5]decan-3-ylamino)-2-hydroxypropoxy)-N,N-dimethylbenzenesulfonamide]: the IC50 amounted to 0.0213 µM.

As for `CNS(=O)(=O)c1cccc(OC[C@@H](O)CNC2COC3(CCN(S(=O)(=O)c4ccc(C)c(C)c4)CC3)C2)c1` (stereo partly drawn) [Compound 19, 3-((2S)-3-(8-(3,4-dimethylphenylsulfonyl)-1-oxa-8-azaspiro[4.5]decan-3-ylamino)-2-hydroxypropoxy)-N-methylbenzenesulfonamide], the IC50 stood at 0.01 µM.

Consider `CNS(=O)(=O)c1cccc(OC[C@@H](O)CN[C@H]2COC3(CCN(S(=O)(=O)c4cccc(Cl)c4)CC3)C2)c1` [Compound 592, 3-((S)-3-((R)-8-(3-chlorophenylsulfonyl)-1-oxa-8-azaspiro[4.5]decan-3-ylamino)-2-hydroxypropoxy)-N-methylbenzenesulfonamide], for which the concentration for half-maximal inhibition (IC50) turned out to be 0.021 µM.
